Source: US8921363B2, “Derivatives of 1 H-isoindol-3-amine, 1 H-iso-aza-indol-3amine, 3,4-dihydroisoquinolin-1-amine, and 1,4-dihydroisoquinolin-3-amine as beta-secretase inhibitors” (Amgen Inc., priority 2010, dated 2014)

Assays:
BACE1 = BACE1 (Homo sapiens, UniProt P56817); assay: In vitro enzymatic BACE FRET assay; type: biochemical
Protocol: In Vitro Enzymatic BACE FRET (fluorescence resonance energy transfer) Assay (Enzyme Assay data in the Example Table I)
The assay buffer used in this screen is 0.05 M acetate, pH 4.2, 10% DMSO final, 100 uM genapol (which is a nonionic detergent, below its Critical Micelle Concentration). […] This assay is effectively started by the addition of FRET substrate (50 nM) and the combination is incubated for one hour. The FRET assay is terminated with by addition of Tris buffer, which raises the pH to neutrality, and the fluorescence is determined. The FRET substrate is a peptide with commercially available fluorophore and quencher, on opposite sides of the BACE cleavage site. Proteolytic cleavage of the FRET substrate releases quenching of fluorescence (excitation […] and […]).

amyloid beta peptide = assay: In vivo inhibition of beta-secretase (CSF and brain abeta reduction); details: rat, PD dose of 10 mg/kg, after 4 hrs
Excerpt: Several animal models, including mouse, rat, dog, and monkey, may be used to screen for inhibition of beta-secretase activity in vivo following administration of a test compound sample. Animals used in this invention can be wild type, transgenic, or gene knockout animals. For example, the Tg2576 mouse model, prepared and conducted as described in Hsiao et al., 1996, Science 274, 99-102, and other non-transgenic or gene knockout animals are useful to analyze in vivo inhibition of Amyloid beta peptide (Abeta) production in the presence of inhibitory test compounds. Generally, 2 to 18 month old Tg2576 mice, gene knockout mice or non-transgenic animals are administered test compounds formulated in vehicles, such as cyclodextran, phosphate buffers, hydroxypropyl methylcellulose or other suitable vehicles. One to twenty-four hours following the administration of compound, animals are sacrificed, and brains as well as cerebrospinal fluid (CSF) and plasma are removed for analysis of A-beta levels and drug or test compound concentrations (Dovey et al., 2001, Journal of Neurochemistry, 76,173-181) Beginning at time 0, animals are administered by oral gavage, or other means of delivery such as intravenous injection, an inhibitory test compound of up to 100 mg/kg in a standard, conventional formulation, such as 2% hydroxypropyl methylcellulose, 1% Tween80. A separate group of animals receive 2% hydroxypropyl methylcellulose, 1% Tween80 alone, containing no test compound, and serve as a vehicle-control group. At the end of the test period, animals are sacrificed and brain tissues, plasma or cerebrospinal fluid are collected. Brains are either homogenized in 10 volumes (w/v) of 0.2% diethylamine (DEA) in 50 mM NaCl (Best et al., 2005, Journal of Pharmacology and Experimental Therapeutics, 313, 902-908), or in 10 volumes of 0.5% TritonX-100 in Tris-buffered saline (pH at about 7.6). Homogenates are centrifuged at 355,000 g, 4° C. for 30 minutes. CSF or brain supernatants are then analyzed for the presence of A-beta peptide by specific sandwich ELISA assays based on ECL (Electrochemiluminescence) technology. For example, rat Abeta40 is measured using biotinylated-4G8 (Signet) as a capture antibody and Fab40 (an in-house antibody specific to the C-terminal of Abeta40) as a detection antibody. For example, 4 hours after administration of 30 mg/kg oral dose of the test compound in 2% hydroxypropyl methylcellulose, 1% Tween80 (pH2.2) to 200 g male Sprague Dawley rats, amyloid beta peptide levels are measured for reduction by X % and Y % in cerebrospinal fluid and brain, respectively, when compared to the levels measured in the vehicle-treated or control mice.
Actual vehicles used: Oral: 2% HPMC, 1% Tween80, pH 2.2 […]

[1] = system: Aβ40 in conditioned medium of cells expressing amyloid precursor protein; assay: In vitro BACE cell-based assay (HEK cell assay, Aβ40 sandwich ELISA); details: Homo sapiens, HEK293; average IC50; Aβ40 after 24 h incubation

Chain of BACE1 (P56817 46-501): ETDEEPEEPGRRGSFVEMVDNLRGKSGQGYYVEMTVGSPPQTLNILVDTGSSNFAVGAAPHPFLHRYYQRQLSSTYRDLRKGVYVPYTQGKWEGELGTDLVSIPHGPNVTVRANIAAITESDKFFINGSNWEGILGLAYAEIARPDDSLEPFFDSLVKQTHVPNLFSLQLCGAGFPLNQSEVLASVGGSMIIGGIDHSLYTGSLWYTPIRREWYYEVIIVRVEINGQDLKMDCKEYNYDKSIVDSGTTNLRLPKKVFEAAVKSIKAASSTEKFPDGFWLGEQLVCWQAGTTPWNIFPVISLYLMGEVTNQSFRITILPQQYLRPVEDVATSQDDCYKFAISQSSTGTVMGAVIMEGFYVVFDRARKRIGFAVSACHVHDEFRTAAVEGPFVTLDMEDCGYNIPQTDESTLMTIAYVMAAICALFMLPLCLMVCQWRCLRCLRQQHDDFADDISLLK

## NC1=N[C@]2(c3cc(-c4cccnc4F)ccc3Oc3c2cc(-c2ccnc(F)c2)nc3F)c2cccnc21 [Example 17e, (S)-1-fluoro-7-(2-fluoropyridin-3-yl)-3-(2-fluoropyridin-4-yl)spiro[chromeno[2,3-c]pyridine-5,5′-pyrrolo[3,4-b]pyridin]-7′-amine]
BACE1
  IC50: 0.7 nM
Amyloid beta peptide
  CSF abeta reduction: 41%
  brain abeta reduction: 28%
[1]
  IC50: 7 nM

## NC1=N[C@]2(c3cc(-c4cccnc4F)ccc3Oc3c2cc(C2=CCCOC2)nc3F)c2ccccc21 (single isomer, unassigned) [Example 7-B]
BACE1
  IC50: 0.5 nM
Amyloid beta peptide
  CSF abeta reduction: 7%
  brain abeta reduction: 10%
[1]
  IC50: 5 nM

## NC1=NC2(c3cc(-c4cccnc4F)ccc3Oc3cnc(-c4ccnc(F)c4)cc32)c2ccccc21 (racemic) [Example 10, 7-(2-fluoropyridin-3-yl)-3-(2-fluoropyridin-4-yl)spiro[chromeno[2,3-c]pyridine-5,1′-isoindol]-3′-amine]
BACE1
  IC50: 1 nM
[1]
  IC50: 12 nM

## NC1=N[C@]2(c3cc(-c4cccnc4F)ccc3Oc3c2cc(-c2ccnc(F)c2)nc3F)c2cnccc21 (single isomer, unassigned) [Example 14-A]
BACE1
  IC50: 0.4 nM
[1]
  IC50: 8 nM

## NC1=NC2(c3ccccc3O1)c1cc(-c3cccnc3F)ccc1Oc1cnc(C3=CCCOC3)cc12 (racemic) [Example 18, 3′-(5,6-dihydro-2H-pyran-3-yl)-7′-(2-fluoropyridin-3-yl)spiro[benzo[e][1,3]oxazine-4,5′-chromeno[2,3-c]pyridin]-2-amine]
BACE1
  IC50: 2 nM
[1]
  IC50: 122 nM

## NC1=NC2(c3cc(-c4cccnc4F)ccc3Oc3cnc(C4=CCOCC4)cc32)c2ccccc21 (racemic) [Example 11, 3-(3,6-dihydro-2H-pyran-4-yl)-7-(2-fluoropyridin-3-yl)spiro[chromeno[2,3-c]pyridine-5,1′-isoindol]-3′-amine]
BACE1
  IC50: 3 nM
[1]
  IC50: 12 nM

## NC1=NC2(c3cc(-c4cccnc4F)ccc3Oc3c2cc(C2=CCOCC2)nc3F)c2ccccc21 (racemic) [Example 6, 3-(3,6-dihydro-2H-pyran-4-yl)-1-fluoro-7-(2-fluoropyridin-3-yl)spiro[chromeno[2,3-c]pyridine-5,1′-isoindol]-3′-amine]
BACE1
  IC50: 1 nM
[1]
  IC50: 3 nM

## NC1=NC2(c3cc(-c4cccnc4F)ccc3Oc3c2cc(N2CCOCC2)nc3F)c2ccccc21 (racemic) [Example 8, 1-fluoro-7-(2-fluoropyridin-3-yl)-3-morpholinospiro[chromeno[2,3-c]pyridine-5,1′-isoindol]-3′-amine]
BACE1
  IC50: 4.2 nM
[1]
  IC50: 14 nM

## NC1=N[C@@]2(c3cc(-c4cccnc4F)ccc3Oc3c2cc(-c2ccnc(F)c2)nc3F)c2cnccc21 (single isomer, unassigned) [Example 14-B]
BACE1
  IC50: 107 nM
[1]
  IC50: 2460 nM

## NC1=N[C@@]2(c3cc(Br)ccc3Oc3c2cc(Cl)nc3F)c2cnccc21 (single isomer, unassigned) [Example 14c-1]
BACE1
  IC50: > 10000 nM
[1]
  IC50: > 10000 nM

## NC1=N[C@]2(c3cc(-c4cccnc4F)ccc3Oc3cnc(-c4cccnc4F)cc32)c2ccccc21 (single isomer, unassigned) [Example 10-C]
BACE1
  IC50: 900 nM
[1]
  IC50: > 10000 nM

## NC1=NC2(c3cc(-c4cccnc4F)ccc3Oc3cnc(Cl)cc32)c2ncccc2O1 (racemic) [Example 21, 3-chloro-7-(2-fluoropyridin-3-yl)spiro[chromeno[2,3-c]pyridine-5,4′-pyrido[2,3-e][1,3]oxazin]-2′-amine]
BACE1
  IC50: 370 nM
[1]
  IC50: > 10000 nM

## NC1=NC2(c3cc(-c4cccnc4F)ccc3Oc3cnc(-c4ccnc(F)c4)cc32)c2ncccc2O1 (stereo not drawn) [Example 22, 7-(2-fluoropyridin-3-yl)-3-(2-fluoropyridin-4-yl)spiro[chromeno[2,3-c]pyridine-5,4′-pyrido[2,3-e][1,3]oxazin]-2′-amine]
BACE1
  IC50: 9.9 nM
[1]
  IC50: 805 nM
